In US20250281424A1 (New York Blood Center, Inc, priority 2020, published 2025):
Like-named read-outs stand apart in the source and are kept apart here.

What was measured:
[1] = Plasma protein binding (PPB, mouse); assay type: in vitro ADME; conditions: mouse, plasma; read-out: PPB mouse (% bound) (converted)
Excerpt: (§1) Certain exemplified compounds were examined for ADMET (absorption, distribution, metabolism, excretion and toxicity) profiling using conventional assays with the results shown in the Tables 3A-3C below.

plasma protein = experiment: Plasma protein binding (PPB, mouse); assay type: in vitro ADME
Excerpt: as §1

[2] = target: T1, ultra large complexes (ULC) between PF4 tetramers and heparin (Homo sapiens, UniProt P02776); experiment: Inhibition of formation of ultra large complexes (ULC) of PF4 tetramers and heparin; assay type: biochemical; conditions: for IC50: IC50 values are +/−20%
T1 construct: platelet factor 4 which is a 70 amino acid, lysine-rich, 7.8 kDa platelet-specific protein
T1 sequence (P02776 32-101): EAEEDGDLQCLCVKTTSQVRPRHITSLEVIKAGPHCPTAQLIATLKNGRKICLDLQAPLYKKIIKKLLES
Experimental: Since ULCs are formed as part of a dynamic equilibrium between heparin and PF4, dynamic light scattering (DLS) was performed to measure the ability of the exemplified compounds to disrupt preformed ULCs. Samples were analyzed and included PF4 incubated in the absence or presence of unfractionated heparin (UFH) for 20 min at room temperature at PF4 to heparin ratios (PHR) of 1:0 (no heparin), 2:1, and 0.64:1. The samples were then analyzed using photon correlation spectroscopy on a DynaPro® DLS instrument and Dynamics® software (V6.7.6; […]) to obtain correlation function. The results of the DLS analysis indicate the percentage of ULCs and small PF4 particles. Data for the small particles (a population of particles with a mean hydrodynamic diameter of about 1 nm) and data for the large particles (a population of particles with a mean hydrodynamic diameter of about 300 nm) is assessed. Data are expressed as the percent of total intensity from each measurement, the mean of 10 measurements, and representative of two such experiments.
ELISA measurement and gel filtration measurement of ULC inhibition were performed as described in International Patent Publication No. WO2013/142328, which is incorporated herein by reference. Similarly, assays in which heparin concentrations are varied to determine the effect on ULC inhibition were performed as described in that publication.
Certain compounds were evaluated for their ability to inhibit formation of ultra large complexes (ULC) between PF4 tetramers and heparin.

[3] = Cytotoxicity NIH3T3 (MTS reduction); assay type: cell-based; conditions: mouse, NIH3T3 cells, 1 hour exposure in the absence of serum, N = 3, read-out: Cytotox NIH3T3 EC50
P450 1A2 = target: T2, P450 1A2 (Homo sapiens, UniProt P05177); experiment: P450 inhibition 1A2; assay type: in vitro ADME
T2 sequence (P05177 1-516): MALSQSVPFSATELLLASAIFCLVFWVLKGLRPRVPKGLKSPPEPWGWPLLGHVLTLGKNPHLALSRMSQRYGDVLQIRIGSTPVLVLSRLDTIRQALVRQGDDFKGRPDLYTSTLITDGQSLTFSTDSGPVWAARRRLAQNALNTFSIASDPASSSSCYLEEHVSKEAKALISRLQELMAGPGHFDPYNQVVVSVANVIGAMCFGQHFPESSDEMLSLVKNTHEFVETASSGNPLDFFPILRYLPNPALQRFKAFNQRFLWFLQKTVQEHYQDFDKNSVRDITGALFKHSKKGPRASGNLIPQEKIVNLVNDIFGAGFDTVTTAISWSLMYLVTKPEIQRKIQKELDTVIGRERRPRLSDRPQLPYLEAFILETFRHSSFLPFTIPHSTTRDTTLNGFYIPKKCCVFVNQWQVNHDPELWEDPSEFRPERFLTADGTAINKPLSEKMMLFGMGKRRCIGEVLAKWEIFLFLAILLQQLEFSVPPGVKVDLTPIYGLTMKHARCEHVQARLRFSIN
Experimental: as §1
(§2) Examples 1 and 3 were evaluated as inhibitors of the five P450s that are the source of most DDI issues. […] The tested compounds meet drug property criteria for IV administration.

[4] = target: human Ether-à-go-go-Related Gene (hERG) (Homo sapiens, UniProt Q12809); experiment: hERG patch clamp assay; assay type: in vitro ADME; conditions: for hERG inhibition: 30 μM concentration, patch clamp
human Ether-à-go-go-Related Gene (hERG), sequence (Q12809 whole entry): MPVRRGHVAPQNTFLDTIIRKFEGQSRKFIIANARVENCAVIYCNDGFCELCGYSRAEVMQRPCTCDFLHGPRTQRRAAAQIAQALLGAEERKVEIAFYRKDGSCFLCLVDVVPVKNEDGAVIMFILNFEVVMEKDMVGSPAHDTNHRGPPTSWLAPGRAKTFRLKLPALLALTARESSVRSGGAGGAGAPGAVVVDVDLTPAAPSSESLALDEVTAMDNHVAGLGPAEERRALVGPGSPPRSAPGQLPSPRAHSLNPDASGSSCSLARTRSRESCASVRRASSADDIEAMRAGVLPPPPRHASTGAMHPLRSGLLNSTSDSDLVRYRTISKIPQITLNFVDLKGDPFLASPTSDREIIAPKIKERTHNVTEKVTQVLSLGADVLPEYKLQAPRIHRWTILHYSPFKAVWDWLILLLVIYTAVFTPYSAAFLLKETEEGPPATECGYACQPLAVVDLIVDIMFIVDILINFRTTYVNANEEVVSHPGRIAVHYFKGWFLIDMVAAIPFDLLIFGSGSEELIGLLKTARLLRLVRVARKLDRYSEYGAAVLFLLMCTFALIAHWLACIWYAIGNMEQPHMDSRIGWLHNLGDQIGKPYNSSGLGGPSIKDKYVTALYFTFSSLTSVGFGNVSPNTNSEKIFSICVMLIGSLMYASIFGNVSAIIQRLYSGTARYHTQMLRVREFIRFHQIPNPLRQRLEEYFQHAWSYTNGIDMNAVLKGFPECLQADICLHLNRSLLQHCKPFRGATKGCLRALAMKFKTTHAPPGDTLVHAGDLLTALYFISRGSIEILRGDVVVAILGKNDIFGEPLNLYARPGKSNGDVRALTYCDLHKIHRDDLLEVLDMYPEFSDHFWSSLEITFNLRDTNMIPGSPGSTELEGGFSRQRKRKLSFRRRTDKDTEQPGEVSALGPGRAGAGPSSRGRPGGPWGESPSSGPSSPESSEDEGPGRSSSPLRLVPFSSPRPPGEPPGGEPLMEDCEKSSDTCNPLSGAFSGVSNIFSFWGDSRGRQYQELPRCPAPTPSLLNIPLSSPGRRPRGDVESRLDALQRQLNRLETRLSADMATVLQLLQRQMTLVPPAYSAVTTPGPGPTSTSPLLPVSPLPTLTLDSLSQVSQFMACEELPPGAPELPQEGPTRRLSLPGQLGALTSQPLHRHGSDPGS
Experimental: as §1, §2

[5] = Pharmacokinetics after IV bolus in CD-1 mice; assay type: in vivo
Experimental: PK parameters were measured and reported in Table 4 as follows: C0 represents concentration in ng/ml at t=0 min; AUC0-last represents area under the curve for t=0 min to last time point; AUC0-∞ represents area under the curve for t=0 min to infinity.

[6] = Experimentally determined log D; assay type: physicochemical
[7] = Experimentally determined pKa; assay type: physicochemical
Heparin-PF4-KKO mice = experiment: In vivo activity, heparin-PF4-KKO induced thrombocytopenia (mouse model of HIT)
Experimental: Heparin-PF4-KKO mice that were induced to thrombocytopenia were administered the compound of Example 1. The dosing regimen was guided by the PK results in Table 4 (see Example A6). At T0hr, 5 mg/kg of Compound 1 was given by retro-orbital injection. 1000 units/kg heparin was injected subcutaneously at T3hr. At T4hr, 20 mg/kg of KKO antibody was administered by retro-orbital injection. Also at T4hr, an additional 5 mg/kg of the compound was injected intraperitoneally. Platelet count was measured at T8hr.

[8] = mouse, plasma, CD-1 mice, 1 mg/kg IV bolus

CCOC(=O)C1C(=O)c2ccc(C(=O)c3ccc4c(c3)C(=O)C(C(=O)OCC)C4=O)cc2C1=O (stereo not drawn) [Example 3, diethyl 5,5′-carbonylbis(1,3-dioxo-2,3-dihydro-1h-indene-2-carboxylate)]
fraction unbound [1]: 0.043 | protein binding (plasma protein): high protein binding | inhibition of ULC formation ([2]; FIG. 6B): dose-dependent inhibition | IC50 [2]: 2 µM | EC50 at 1 h [3]: > 500 µg/mL | IC50 (P450 1A2): > 100 µM | hERG inhibition [4]: no significant inhibition | IC50 ([4]; read-out: hERG IC50): > 30 µM

CC(=O)C1C(=O)c2ccc(C(=O)c3ccc4c(c3)C(=O)C(C(C)=O)C4=O)cc2C1=O (stereo not drawn) [Example 1, 5,5′-carbonylbis(2-acetyl-1h-indene-1,3(2h)-dione)]
time the concentration was sustained above 1 μM ([5]; 1 mg/kg, CD-1 mice (FIG. 5)): greater than 4 hours | clearance ([5]; CD-1 mice, 1 mg/kg IV): low clearance | half-life ([5]; CD-1 mice, 1 mg/kg IV): long half-life | volume of distribution ([5]; CD-1 mice, 1 mg/kg IV): low clearance and volume of distribution | AUC(0-inf) [5, 8]: 9350 ± 778 ng·h/mL | AUC(0-t) [5, 8]: 9190 ± 704 ng·h/mL | half-life ([5]; mouse, plasma, CD-1 mice, 1 mg/kg IV bolus, average of 3 mice, read-out: t1/2 (converted)): 4.59 ± 0.584 h | C0 ([5]; mouse, plasma, CD-1 mice, 1 mg/kg IV bolus, concentration at t=0 min): 15100 ± 2070 ng/mL | clearance ([5]; mouse, plasma, CD-1 mice, 1 mg/kg IV bolus, read-out: Clearance): 1.79 ± 0.147 mL/min/kg | Vd ([5]; mouse, plasma, CD-1 mice, 1 mg/kg IV bolus, read-out: Volume of distribution (Vdss)): 0.448 ± 0.0121 L/kg | IC50 [2]: 8 µM | EC50 at 1 h [3]: > 1000 µg/mL | IC50 (P450 1A2): 46.7 µM | inhibition of P450 1A2 (P450 1A2): moderate inhibition | logD [6]: 0.53 | IC50 [4]: > 30 µM | hERG inhibition [4]: no significant inhibition | pKa [7]: 1.99 | tolerability (Heparin-PF4-KKO mice; mice, 5 mg/kg IV and IP doses): tolerated the 5 mg/kg IV and IP doses of the compound well | heparin-PF4-KKO induced thrombocytopenia in vivo (Heparin-PF4-KKO mice; mouse model of HIT (FIG. 4)): reduces heparin-PF4-KKO induced thrombocytopenia in vivo | platelet counts at 4 hr, remaining mouse (Heparin-PF4-KKO mice; one of the four mice): only a little higher than DMSO controls | platelet counts 4 hr after KKO administration (Heparin-PF4-KKO mice; three of the four mice, 5 mg/kg retro-orbital at T0hr + 5 mg/kg IP at T4hr): > 80 % of baseline
